Measurements published in patent US20070293434A9, “Binding polypeptides and methods based thereon” (priority 2000, published 2007).

Target: BLyS (Homo sapiens, UniProt Q9Y275)
Experiment: Fluorescence anisotropy determination of BLyS-ligand dissociation constants
Type: binding
Description: Dissociation constants between the synthetic peptides and BLyS (free in solution) were measured by fluorescence anisotropy (FA). In these experiments, the concentration of the fluorescein-labeled peptide is held constant and the BLyS protein concentration was varied. […] Binding reactions containing 50 nM fluorescein-labeled peptide and a varied concentration of BLyS in a volume between 10 and 20 μL per well were performed in 384 well microplates. Reactions were assayed using a Tecan Polarion fluorescence polarization plate reader. Cross-competition studies between peptides were performed using 50 nM fluorescein-labeled peptide and 1-2 μM BLyS in the presence and absence of 100 μM unlabeled peptide. […] Other buffers in which dissociation constants of BLyS Binding polypeptides were […] include: […] […] The KD of several BLyS binding BAML peptides was determined by fluorescence anisotropy, performed as previously described.

Chain of BLyS (Q9Y275 134-285 limits assumed): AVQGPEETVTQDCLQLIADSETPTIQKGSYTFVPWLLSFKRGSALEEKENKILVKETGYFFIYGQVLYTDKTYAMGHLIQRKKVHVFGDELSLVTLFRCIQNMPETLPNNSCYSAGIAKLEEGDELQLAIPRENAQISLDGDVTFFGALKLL

Row | Substance | decrease in affinity compared to DX814 (compared to DX814) | improvement in binding affinity for BLyS as compared to 453-01-B07 (compared to 453-01-B07 (SEQ ID NO:31))
1 | Ac-ANWYDPLTKLSLPDGGK-fitc [DX818] | approximately 10 fold | –
2 | Ac-ANWYDSLTKLWLPDGGK-fitc [DX822] | – | more than 10 fold
